pIC50: −log10 of the molar value. The source made the active and inactive calls. No cut-off for these calls is given here.
How the values were obtained:
[1] = Selectivity index, ratio of IC50 for human MRC5 cells to IC50 for Plasmodium falciparum 2/K 1-strain; format: toxicity, cell-based; conditions: read-out: Ratio IC50
[2] = Selectivity index, ratio of IC50 for human MRC5 cells to IC50 for Trypanosoma brucei Squib-427; format: toxicity, cell-based; conditions: read-out: Ratio IC50
Plasmodium falciparum = assay: Antiplasmodial activity against chloroquine-resistant Plasmodium falciparum 2/K1-strain cultured in human red blood cells assessed as infected cells after 72 hrs by malstat method; format: functional, organism-based; conditions: 2/K1, 72 h
Trypanosoma brucei = assay: Antitrypanosomal activity against trypomastigote Trypanosoma brucei Squib-427 strain cultured in MRC-5 cells assessed as parasite growth after 7 days by beta-galactosidase assay; format: functional, organism-based; conditions: Squib-427, MRC5, 168 h
Leishmania donovani [3] = assay: Antileishmanial activity against intracellular amastigote form of Leishmania donovani; format: functional, organism-based
Leishmania major = assay: Antileishmanial activity against Leishmania major; format: functional, organism-based
Vero = assay: Cytotoxicity against african green monkey Vero cells after 72 hrs; format: cell-based; conditions: Chlorocebus sabaeus
[4] = Selectivity index, ratio of IC50 for african green monkey Vero cells to IC50 for intracellular amastigote form of Trypanosoma cruzi IRHOD/CO/2008/SN3; format: toxicity, cell-based; conditions: read-out: Ratio IC50
Trypanosoma cruzi [5] = assay: Trypanocidal activity against epimastigote Trypanosoma cruzi IRHOD/CO/2008/SN3; format: functional, organism-based
[6] = Selectivity index, ratio of IC50 for african green monkey Vero cells to IC50 for epimastigote Trypanosoma cruzi IRHOD/CO/2008/SN3; format: toxicity, cell-based; conditions: read-out: Ratio IC50
Trypanosoma cruzi [7] = assay: Trypanocidal activity against intracellular amastigote form of Trypanosoma cruzi IRHOD/CO/2008/SN3 in african green monkey Vero cells; format: functional, organism-based; conditions: IRHOD/CO/2008/SN3, Vero
Trypanosoma cruzi [8] = assay: Antiparasitic activity against trypomastigote form of Trypanosoma cruzi IRHOD/CO/2008/SN3 infected in BALB/c mouse acute chagas disease model assessed as parasite reduction in blood; format: functional, organism-based; conditions: IRHOD/CO/2008/SN3, Blood
Trypanosoma cruzi [9] = assay: Inhibition of Fe-SOD in Trypanosoma cruzi epimastigote at 80 uM
Trypanosoma cruzi [10] = assay: Decrease in L-alanine catabolites in epimastigote Trypanosoma cruzi at IC25 concentration after 96 hrs; format: functional
Trypanosoma cruzi [11] = assay: Decrease in pyruvate catabolites in epimastigote Trypanosoma cruzi at IC25 concentration after 96 hrs; format: functional
Trypanosoma cruzi [12] = assay: (§1) Antiparasitic activity against trypomastigote form of Trypanosoma cruzi IRHOD/CO/2008/SN3 infected in BALB/c mouse acute chagas disease model assessed as heart free from parasite at 25 mg/kg, ip after 60 days immunosuppressed with cyclophosphamide monohydrate measured up to day 120 post infection by PCR analysis; format: functional; conditions: route intraperitoneal
Trypanosoma cruzi [13] = assay: Antiparasitic activity against trypomastigote form of Trypanosoma cruzi IRHOD/CO/2008/SN3 infected in BALB/c mouse acute chagas disease model assessed as parasite reduction in blood at 25 mg/kg, ip measured on day 40 post infection; format: functional; conditions: IRHOD/CO/2008/SN3, Blood, 960 h, route intraperitoneal
Mus musculus [14] = assay: Toxicity in Trypanosoma cruzi IRHOD/CO/2008/SN3 infected in BALB/c mouse acute chagas disease model assessed as liver marker ALT/GPT level at 25 mg/kg, ip after 60 days immunosuppressed with cyclophosphamide monohydrate measured up to day 120 post infection […]; format: organism-based; design: dose 25 mg/kg, route intraperitoneal; conditions: in vivo, 1440 h
Trypanosoma cruzi [15] = assay: Trypanocidal activity against epimastigote Trypanosoma cruzi IRHOD/CO/2008/SN3 infected in african green monkey Vero cells assessed as decrease in rate of infection at IC25 concentration on day 10; format: functional
[16] = Inhibition of Fe-SOD in Trypanosoma cruzi epimastigote
Trypanosoma cruzi [17] = assay: Increase in succinate catabolites in epimastigote Trypanosoma cruzi at IC25 concentration after 96 hrs; format: functional
Mus musculus [18] = assay: Toxicity in Trypanosoma cruzi IRHOD/CO/2008/SN3 infected in BALB/c mouse acute chagas disease model assessed as alkalyne phosphatase level at 25 mg/kg, ip after 60 days immunosuppressed with cyclophosphamide monohydrate measured up to day 120 post infection […]; format: organism-based; design: dose 25 mg/kg, route intraperitoneal; conditions: in vivo, 1440 h
Mus musculus [19] = assay: Toxicity in Trypanosoma cruzi IRHOD/CO/2008/SN3 infected in BALB/c mouse acute chagas disease model assessed as kidney marker uric acid level at 25 mg/kg, ip after 60 days immunosuppressed with cyclophosphamide monohydrate measured up to day 120 post infection […]; format: organism-based; design: dose 25 mg/kg, route intraperitoneal; conditions: in vivo, 1440 h
Trypanosoma cruzi [20] = assay: as §1, with “parasitemia reactivation” for “heart free from parasite”, “(reference value: 80.3%)” for “by PCR analysis”; format: functional; conditions: route intraperitoneal
Mus musculus [21] = assay: Toxicity in Trypanosoma cruzi IRHOD/CO/2008/SN3 infected in BALB/c mouse acute chagas disease model assessed as heart marker CK-MB level at 25 mg/kg, ip after 60 days immunosuppressed with cyclophosphamide monohydrate measured up to day 120 post infection […]; format: organism-based; design: dose 25 mg/kg, route intraperitoneal; conditions: in vivo, 1440 h
[22] = target: Superoxide dismutase [Cu-Zn] (Homo sapiens, UniProt P00441); assay: Inhibition of CuZn-SOD in human erythrocytes; format: cell-based
Mus musculus [23] = assay: Toxicity in Trypanosoma cruzi IRHOD/CO/2008/SN3 infected in BALB/c mouse acute chagas disease model assessed as liver marker AST/GOT level at 25 mg/kg, ip after 60 days immunosuppressed with cyclophosphamide monohydrate measured up to day 120 post infection […]; format: organism-based; design: dose 25 mg/kg, route intraperitoneal; conditions: in vivo, 1440 h
Trypanosoma cruzi [24] = assay: Trypanocidal activity against epimastigote Trypanosoma cruzi IRHOD/CO/2008/SN3 infected in african green monkey Vero cells assessed as decrease in average number of amastigotes per infected cell at IC25 concentration on day 10; format: functional; design: scale not given: the % may be the effect or the level left
Trypanosoma cruzi [25] = assay: Trypanocidal activity against epimastigote Trypanosoma cruzi IRHOD/CO/2008/SN3 assessed as morphological disturbance at IC25 concentration; format: functional, organism-based
Trypanosoma cruzi [26] = assay: Decrease in acetate catabolites in epimastigote Trypanosoma cruzi at IC25 concentration after 96 hrs; format: functional
Mus musculus [27] = assay: Toxicity in Trypanosoma cruzi IRHOD/CO/2008/SN3 infected in BALB/c mouse acute chagas disease model assessed as heart marker LDH level at 25 mg/kg, ip after 60 days immunosuppressed with cyclophosphamide monohydrate measured up to day 120 post infection […]; format: organism-based; design: dose 25 mg/kg, route intraperitoneal; conditions: in vivo, 1440 h
Mus musculus [28] = assay: Toxicity in Trypanosoma cruzi IRHOD/CO/2008/SN3 infected in BALB/c mouse acute chagas disease model assessed as total bilirubuin level at 25 mg/kg, ip after 60 days immunosuppressed with cyclophosphamide monohydrate measured up to day 120 post infection […]; format: organism-based; design: dose 25 mg/kg, route intraperitoneal; conditions: in vivo, 1440 h
Mus musculus [29] = assay: Toxicity in Trypanosoma cruzi IRHOD/CO/2008/SN3 infected in BALB/c mouse acute chagas disease model assessed as kidney marker urea level at 25 mg/kg, ip after 60 days immunosuppressed with cyclophosphamide monohydrate measured up to day 120 post infection […]; format: organism-based; design: dose 25 mg/kg, route intraperitoneal; conditions: in vivo, 1440 h
Trypanosoma cruzi [30] = assay: Decrease in D-lactate catabolites in epimastigote Trypanosoma cruzi at IC25 concentration after 96 hrs; format: functional
[31] = Selectivity index, ratio of IC50 for african green monkey Vero cells to IC50 for trypomastigote form of Trypanosoma cruzi IRHOD/CO/2008/SN3; format: toxicity, cell-based; conditions: read-out: Ratio IC50
Trypanosoma cruzi [32] = assay: as §1, with “parasitemia reactivation” for “heart free from parasite”, “5” for “25”, “(reference value: 80.3%)” for “by PCR analysis”; format: functional; conditions: route intraperitoneal
Trypanosoma cruzi [33] = assay: Antiparasitic activity against trypomastigote form of Trypanosoma cruzi IRHOD/CO/2008/SN3 infected in BALB/c mouse acute chagas disease model assessed as parasite reduction in blood at 5 mg/kg, ip measured on day 40 post infection; format: functional; design: scale not given: the % may be the effect or the level left; conditions: route intraperitoneal
L6 = assay: Cytotoxicity against rat L6 cells; format: cell-based
Leishmania donovani [34] = assay: Antileishmanial activity against intracellular amastigote stage of Leishmania donovani; format: functional, organism-based
Trypanosoma cruzi [35] = assay: Increase in acetate catabolites in epimastigote Trypanosoma cruzi at IC25 concentration after 96 hrs; format: functional
Trypanosoma cruzi [36] = assay: Increase in pyruvate catabolites in epimastigote Trypanosoma cruzi at IC25 concentration after 96 hrs; format: functional
Trypanosoma cruzi [37] = assay: Increase in L-alanine catabolites in epimastigote Trypanosoma cruzi at IC25 concentration after 96 hrs; format: functional
Trypanosoma cruzi [38] = assay: Increase in D-lactate catabolites in epimastigote Trypanosoma cruzi at IC25 concentration after 96 hrs; format: functional

Superoxide dismutase [Cu-Zn], sequence (P00441 whole entry): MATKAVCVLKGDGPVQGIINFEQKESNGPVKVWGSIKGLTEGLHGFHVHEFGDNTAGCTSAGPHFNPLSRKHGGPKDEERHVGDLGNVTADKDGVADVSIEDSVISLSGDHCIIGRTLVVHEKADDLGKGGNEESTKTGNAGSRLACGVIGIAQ

SMILES: CC(C)C1=CC2=C[C@H](O)[C@H]3C(C)(C)C(O)C=C[C@]3(C)C2=C(O)C1=O (some centres not stated)
- selectivity ratio [1]: 10.4
- selectivity ratio [2]: 50.5
- pIC50 (Plasmodium falciparum): 5.04
- pIC50 (Trypanosoma brucei): 5.72

SMILES: CC(C)C1=CC(=O)C2=C(CC[C@H]3C(C)(C)CCC[C@]23C)C1=O
- pIC50 (Leishmania donovani [3]): 6.92
- pIC50 (Leishmania major): 6.74

SMILES: CC(C)c1cc2c(cc1O)[C@@]1(C)CCCC(C)(C)[C@@H]1CC2=O [SUGIOL]
- pIC50 (Vero): 4.34
- selectivity ratio [4]: 1.84
- pIC50 (Trypanosoma cruzi [5]): 4.48
- selectivity ratio [6]: 1.37
- pIC50 (Trypanosoma cruzi [7]): 4.61

SMILES: CC(=O)OC[C@@]1(C)CCC[C@]2(C)c3cc(O)c(C(C)C)cc3C(=O)C[C@@H]12
- pIC50 (Vero): 4.14
- selectivity ratio [4]: 2.8
- pIC50 (Trypanosoma cruzi [5]): 4.58
- selectivity ratio [6]: 2.8
- pIC50 (Trypanosoma cruzi [7]): 4.59

SMILES: CC(C)c1cc2c(cc1O)[C@@]1(C)CCC[C@@](C)(CO)[C@@H]1[C@@H](O)C2=O
- pIC50 (Trypanosoma cruzi [8]): 4.22
- inhibition (Trypanosoma cruzi [9]): 100%
- inhibition (INH) (Trypanosoma cruzi [10]): 7.7%
- inhibition (INH) (Trypanosoma cruzi [11]): 1.4%
- Activity (Trypanosoma cruzi [12]): 50%
- inhibition in vivo at 25 mg/kg (Trypanosoma cruzi [13]): 45%
- Activity (Mus musculus [14]): < 10%
- inhibition (INH) (Trypanosoma cruzi [15]): 80%
- pIC50 [16]: 4.38
- Activity (Trypanosoma cruzi [17]): 17.1%
- pIC50 (Vero): 3.65
- selectivity ratio [4]: 31.4
- Activity (Mus musculus [18]): < 10%
- Activity (Mus musculus [19]): < 10%
- Activity (Trypanosoma cruzi [20]): 9.8%
- Activity (Mus musculus [21]): < 10%
- pIC50 (Trypanosoma cruzi [5]): 4.73
- pIC50 [22]: 4.25
- Activity (Mus musculus [23]): > 10%
- Activity (Trypanosoma cruzi [24]): 38%
- Activity (Trypanosoma cruzi [25]): Active
- inhibition (INH) (Trypanosoma cruzi [26]): 0.3%
- Activity (Mus musculus [27]): > 10%
- Activity (Mus musculus [28]): < 10%
- selectivity ratio [6]: 11.8
- Activity (Mus musculus [29]): < 10%
- pIC50 (Trypanosoma cruzi [7]): 5.15
- inhibition (INH) (Trypanosoma cruzi [30]): 6.4%
- selectivity ratio [31]: 3.7

SMILES: O=C(Cn1ccnc1[N+](=O)[O-])NCc1ccccc1 [BENZNIDAZOLE]
- Activity (Trypanosoma cruzi [32]): 36%
- Activity (Trypanosoma cruzi [33]): 16.7%

SMILES: COc1c(C(C)C)cc2c(c1O)[C@@]1(C(=O)O)CCCC(C)(C)[C@@H]1CC2
- pIC50 (L6): 4.76
- pIC50 (Leishmania donovani [34]): 6.12

SMILES: CC(C)c1cc2c(c(Br)c1O)[C@@]1(C)CCCC(C)(C)[C@@H]1CC2
- pIC50 (Vero): 3.74
- selectivity ratio [4]: 4.38
- pIC50 (Trypanosoma cruzi [5]): 4.30
- selectivity ratio [6]: 3.69
- pIC50 (Trypanosoma cruzi [7]): 4.38

SMILES: COC(=O)[C@]1(C)CCC[C@]2(C)c3ccc(O)cc3CC[C@@H]12
- pIC50 (Trypanosoma cruzi [8]): 4.05
- inhibition (Trypanosoma cruzi [9]): 100%
- Activity (Trypanosoma cruzi [12]): 17%
- inhibition in vivo at 25 mg/kg (Trypanosoma cruzi [13]): 22%
- Activity (Mus musculus [14]): < 10%
- pIC50 [16]: 4.36
- Activity (Trypanosoma cruzi [17]): 30%
- pIC50 (Vero): 3.32
- selectivity ratio [4]: 17.5
- Activity (Mus musculus [18]): < 10%
- Activity (Trypanosoma cruzi [20]): 48.1%
- pIC50 (Trypanosoma cruzi [5]): 4.41
- pIC50 [22]: 4.23
- Activity (Mus musculus [23]): < 10%
- Activity (Trypanosoma cruzi [35]): 6.3%
- Activity (Trypanosoma cruzi [24]): 41%
- Activity (Trypanosoma cruzi [25]): inactive
- Activity (Mus musculus [27]): < 10%
- Activity (Trypanosoma cruzi [36]): 2.3%
- Activity (Mus musculus [28]): < 10%
- selectivity ratio [6]: 12.1
- Activity (Mus musculus [29]): < 10%
- pIC50 (Trypanosoma cruzi [7]): 4.57
- Activity (Trypanosoma cruzi [37]): 0.5%
- selectivity ratio [31]: 5.3
- Activity (Trypanosoma cruzi [38]): 0.4%

SMILES: COC1=C(C(C)C)C(=O)C2=C(O)C(=O)C3=C(C=CCC3(C)C)C2=C1
- pIC50 (Leishmania donovani [3]): 6.77
- pIC50 (Leishmania major): 6.54
